As usually defined, the Ki is a dissociation constant, usually derived from enzyme kinetics or from competition with a known ligand.

Read-outs that look alike come from different tables or passages of the source. Bounds are passed on as bounds.

The target in one experiment is human α-thrombin (Homo sapiens, UniProt P00734). Nature of the experiment: Proteinase inhibition assay, human α-thrombin. It is filed as biochemical. To be noted: for Ratio: Ki trypsin / Ki thrombin. How it is done: (§1) Assays of human α-thrombin and bovine trypsin were performed at 25° C. in 0.05M TRIS buffer pH 7.4, 0.15M NaCl, 0.1% PEG. Trypsin assays also contained 1 mM CaCl2.
"Sar" is the three letter abbreviation for the amino acid sarcosine (N-methylglycine). p-Nitroanilide substrate concentration was determined from measurements of absorbance at 342 nm using an extinction coefficient of 8270 cm^-1 M^-1.
Concentrations of stock solutions of Z-GPR-afc were determined from measurements of absorbance at 380 nm (extinction coefficient=12600 cm^-1 M^-1) of the 7-amino-4-trifluoromethyl coumarin produced upon complete hydrolysis of an aliquot of the stock solution by thrombin.
(§2) Times required to achieve equilibration between enzyme and inhibitor were determined in control experiments. Initial velocities of product formation in the absence (Vo) or presence of inhibitor (Vi) were measured. Assuming competitive inhibition, and that unity is negligible compared Km /[S], [S]/e, and [I]/e (where [S], [I], and e respectively represent the total concentrations, of substrate, inhibitor and enzyme), the equilibrium constant (Ki) for dissociation of the inhibitor from the enzyme can be obtained from the dependence of Vo /Vi on [I] shown in equation 1.
The constants were determined at pH 7.4 in buffer containing 0.05M Tris, 0.15M NaCl, 0.1% PEG-8000 at room temperature.

A further experiment deals with T1, bovine trypsin (Bos taurus, UniProt P00760).
T1 sequence (P00760 24-246): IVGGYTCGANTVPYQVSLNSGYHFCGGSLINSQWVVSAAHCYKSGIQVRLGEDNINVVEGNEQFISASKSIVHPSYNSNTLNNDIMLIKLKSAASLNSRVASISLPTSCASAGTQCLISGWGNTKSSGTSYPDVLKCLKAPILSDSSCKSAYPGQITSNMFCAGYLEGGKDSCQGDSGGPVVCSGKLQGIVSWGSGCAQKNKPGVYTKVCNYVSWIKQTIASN
Nature of the experiment: Proteinase inhibition assay, bovine trypsin. It is filed as biochemical. The protocol:
as §1
In assays wherein rates of hydrolysis of a p-nitroanilide (pna) substrate were determined, a Thermomax 96-well plate reader was used was used to measure (at 405 nm) the time dependent appearance of p-nitroaniline. sar-PR-pna was used to assay human α-thrombin (Km =125 μM) and bovine trypsin (Km =125 μM). "Sar" is the three letter abbreviation for the amino acid sarcosine (N-methylglycine). p-Nitroanilide substrate concentration was determined from measurements of absorbance at 342 nm using an extinction coefficient of 8270 cm^-1 M^-1.
as §2
Using the assays described above, the following additional embodiments of the invention were evaluated and shown to be selective for inhibiting thrombin. The constants were determined at pH 7.4 in buffer containing 0.05M Tris, 0.15M NaCl, 0.1% PEG-8000 at room temperature.

In another experiment the target is T2, Factor Xa (fXa) (Homo sapiens, UniProt P00742).
T2 construct: Factor Xa (fXa), plasma kallikrein (p-Kal), plasmin (Pl)
Nature of the experiment: Chromogenic assay, Factor Xa. The experiment is classed as biochemical. Particulars: Table 3.

Experiment [1] concerns the target T3, plasma kallikrein (p-Kal) (Homo sapiens, UniProt P03952).
T3 construct: plasma kallikrein (p-Kal)
Briefly: Chromogenic assay, plasma kallikrein. It is filed as biochemical. To be noted: Table 3.

The target in another experiment is plasmin (Pl) (Homo sapiens, UniProt P00747). Briefly: Chromogenic assay, plasmin. The experiment is classed as biochemical. To be noted: Table 3.
For experiment [2], the target named is tissue plasminogen activator (t-PA) (Homo sapiens, UniProt P00750). Briefly: Chromogenic assay, tissue plasminogen activator. Particulars: Table 3, read-out: Ki (nM) tPA. It is filed as biochemical.
Experiment [3] has as its target activated protein C (APC) (Homo sapiens, UniProt P04070). Nature of the experiment: Chromogenic assay, activated protein C. It is filed as biochemical. To be noted: Table 3.
Experiment [4] deals with FeCl3 induced arterial thrombosis in rats. Briefly: Rat ferric chloride assay. It is filed as in vivo. How it is done:
In the assay, male Sprague-Dawley rats (body weights 200-350 grams) were anesthetized with dial-urethane solution (0.1 ml/100 gm body weight i.p.), and a lateral tail vein was cannulated with a 23 gauge needle connected to a 12 inch length of PE50 robing. The robing was attached to a 3-way valve by a tubing adapter. Saline (control) or test compound, as appropriate, was administered via the tail vein catheter. A tracheostomy was performed with a 0.75 inch length of PE205 tubing. The right carotid artery was exposed and a 1.3 mm diameter Doppler flow probe was placed on the vessel. Body temperature was maintained at 37° C. using a heat lamp.
Rats (8-10/group) were randomized to continuous intravenous infusions of saline or test compound administered via the tail vein at a rate of 0.028 ml/min. Treatment infusions were initiated 60 min before the placement of a 3 mm square piece of Whatman No. 1 filter paper saturated with 35% FeCl3 onto the exposed carotid artery distal to the flow probe. […] Time to occlusion was defined as the time from application of FeCl3 to thrombotic occlusion of the vessel.

The mark [5] stands for this setting: Table 2, pH 7.4, 0.05M Tris, 0.15M NaCl, 0.1% PEG-8000, room temperature, read-out: Ki (nM) Thrombin.
Setting [6] is: Table 2, pH 7.4, 0.05M Tris, 0.15M NaCl, 0.1% PEG-8000, room temperature, read-out: Ki (nM) Trypsin.
The mark [7] stands for this setting: Table 1, 25° C., 0.05M TRIS pH 7.4, 0.15M NaCl, 0.1% PEG, read-out: Ki (μM) Thrombin.
Where [8] appears, read: Table 1, 25° C., 0.05M TRIS pH 7.4, 0.15M NaCl, 0.1% PEG, 1 mM CaCl2, read-out: Ki (μM) Trypsin.

plasmin (Pl), sequence (P00747 581-810 limits assumed, species assumed): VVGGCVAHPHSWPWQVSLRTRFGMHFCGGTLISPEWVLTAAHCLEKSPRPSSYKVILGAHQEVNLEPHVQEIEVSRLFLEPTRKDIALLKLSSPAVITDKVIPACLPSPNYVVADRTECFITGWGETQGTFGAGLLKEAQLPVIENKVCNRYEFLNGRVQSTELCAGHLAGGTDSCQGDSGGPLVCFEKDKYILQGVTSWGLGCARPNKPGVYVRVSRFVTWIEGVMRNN
plasmin (Pl), sequence (P00747 97-580 limits assumed, species assumed): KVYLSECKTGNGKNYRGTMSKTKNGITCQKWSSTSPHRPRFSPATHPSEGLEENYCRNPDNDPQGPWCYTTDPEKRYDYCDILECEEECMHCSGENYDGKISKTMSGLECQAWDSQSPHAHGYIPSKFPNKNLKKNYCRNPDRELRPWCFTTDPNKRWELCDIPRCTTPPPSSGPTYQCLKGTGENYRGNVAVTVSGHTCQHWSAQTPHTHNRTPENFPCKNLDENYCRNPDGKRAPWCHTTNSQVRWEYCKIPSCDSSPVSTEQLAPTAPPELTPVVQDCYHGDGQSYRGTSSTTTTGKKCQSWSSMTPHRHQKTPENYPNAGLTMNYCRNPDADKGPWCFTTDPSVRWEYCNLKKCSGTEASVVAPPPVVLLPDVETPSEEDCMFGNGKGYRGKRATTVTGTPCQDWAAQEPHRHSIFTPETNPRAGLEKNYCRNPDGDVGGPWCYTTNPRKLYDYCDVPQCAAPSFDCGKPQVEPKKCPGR
tissue plasminogen activator (t-PA), sequence (P00750 36-562, species assumed): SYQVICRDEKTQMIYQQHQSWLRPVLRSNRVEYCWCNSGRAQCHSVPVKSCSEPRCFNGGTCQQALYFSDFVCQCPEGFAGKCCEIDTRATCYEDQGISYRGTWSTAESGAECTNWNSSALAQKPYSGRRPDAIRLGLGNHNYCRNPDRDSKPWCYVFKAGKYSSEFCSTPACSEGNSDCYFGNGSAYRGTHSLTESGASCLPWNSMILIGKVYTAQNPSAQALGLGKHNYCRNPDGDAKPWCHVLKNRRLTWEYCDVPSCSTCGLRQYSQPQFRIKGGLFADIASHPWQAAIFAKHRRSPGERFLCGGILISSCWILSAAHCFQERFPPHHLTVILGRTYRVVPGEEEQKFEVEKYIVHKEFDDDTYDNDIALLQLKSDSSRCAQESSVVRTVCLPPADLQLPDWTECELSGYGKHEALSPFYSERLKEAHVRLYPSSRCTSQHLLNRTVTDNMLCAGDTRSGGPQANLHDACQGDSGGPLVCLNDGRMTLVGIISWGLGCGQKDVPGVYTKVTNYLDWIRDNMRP
activated protein C (APC), sequence (P04070 212-461 limits assumed): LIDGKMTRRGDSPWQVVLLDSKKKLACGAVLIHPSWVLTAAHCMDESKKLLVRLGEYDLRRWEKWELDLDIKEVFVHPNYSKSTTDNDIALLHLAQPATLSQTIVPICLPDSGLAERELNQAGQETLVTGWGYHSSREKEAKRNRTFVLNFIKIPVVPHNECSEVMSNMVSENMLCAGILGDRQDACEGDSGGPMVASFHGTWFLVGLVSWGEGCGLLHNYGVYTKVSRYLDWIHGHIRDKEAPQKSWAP
activated protein C (APC), sequence (P04070 43-197 limits assumed): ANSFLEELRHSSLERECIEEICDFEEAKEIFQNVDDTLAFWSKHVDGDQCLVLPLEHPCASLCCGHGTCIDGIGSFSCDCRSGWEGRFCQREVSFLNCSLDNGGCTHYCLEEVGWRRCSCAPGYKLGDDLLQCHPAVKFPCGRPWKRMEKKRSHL
T3 sequence (P03952 391-638 limits assumed, species assumed): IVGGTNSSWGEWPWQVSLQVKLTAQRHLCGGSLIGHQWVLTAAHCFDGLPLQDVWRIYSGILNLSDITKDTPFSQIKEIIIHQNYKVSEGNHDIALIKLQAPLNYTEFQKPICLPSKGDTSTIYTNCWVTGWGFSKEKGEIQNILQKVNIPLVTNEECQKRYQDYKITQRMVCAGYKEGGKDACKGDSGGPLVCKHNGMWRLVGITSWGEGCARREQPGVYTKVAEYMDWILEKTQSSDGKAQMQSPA
T3 sequence (P03952 20-390 limits assumed, species assumed): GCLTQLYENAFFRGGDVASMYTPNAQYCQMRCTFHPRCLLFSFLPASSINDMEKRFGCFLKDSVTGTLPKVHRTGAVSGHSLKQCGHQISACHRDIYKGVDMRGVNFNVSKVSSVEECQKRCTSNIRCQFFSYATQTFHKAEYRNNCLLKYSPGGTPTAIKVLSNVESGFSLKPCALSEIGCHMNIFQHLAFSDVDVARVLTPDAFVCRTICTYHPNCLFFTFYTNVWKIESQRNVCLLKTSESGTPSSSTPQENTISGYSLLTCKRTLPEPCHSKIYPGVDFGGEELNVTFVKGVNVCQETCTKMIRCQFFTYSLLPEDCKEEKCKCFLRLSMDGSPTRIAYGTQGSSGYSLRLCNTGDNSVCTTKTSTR
T2 sequence (P00742 235-488 limits assumed): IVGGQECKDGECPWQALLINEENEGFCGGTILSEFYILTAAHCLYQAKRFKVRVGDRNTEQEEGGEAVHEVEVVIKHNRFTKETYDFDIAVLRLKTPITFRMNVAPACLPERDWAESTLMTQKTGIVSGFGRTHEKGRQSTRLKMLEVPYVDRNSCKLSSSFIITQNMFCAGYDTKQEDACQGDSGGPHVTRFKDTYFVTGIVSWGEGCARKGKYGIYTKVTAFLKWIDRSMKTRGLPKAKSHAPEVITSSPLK
T2 sequence (P00742 41-179 limits assumed): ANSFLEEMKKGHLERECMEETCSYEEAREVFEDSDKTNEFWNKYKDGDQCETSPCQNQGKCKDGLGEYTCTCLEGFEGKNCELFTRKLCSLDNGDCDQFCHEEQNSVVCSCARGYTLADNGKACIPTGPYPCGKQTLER

For the compound `CNC(=O)C(=O)C(NC(=O)C1CCCN1C(=O)C(Cc1ccc2ccccc2c1)NC)C1CCC(N)CC1` (centres unmarked) [xiv], the inhibition constant (Ki) at human α-thrombin (setting [5]) is 0.09 nM; at bovine trypsin (setting [6]), 2100 nM; at Factor Xa (fXa), 9000 nM; in experiment [1], more than 10000 nM; at plasmin (Pl), more than 10000 nM; in experiment [2], more than 10000 nM. Further, the Ki in experiment [3] was more than 10000 nM.

For `CNC(Cc1ccccc1)C(=O)N1CCCC1C(=O)NC(C(=O)C(=O)O)C1CCC(N)CC1` (racemic) [3-3, H-NMe-D-Phe-Pro-t-DL-AcgY[COCO]--OH], the Ki is 0.05 nM at human α-thrombin (setting [7]); 51 nM on bovine trypsin (setting [8]); more than 10000 nM at Factor Xa (fXa); 7000 nM in experiment [1]; more than 10000 nM at plasmin (Pl); more than 10000 nM in experiment [2]. The Ki in experiment [3] is more than 10000 nM. Besides, the Ratio at human α-thrombin (Table 1) is given as 1000. Further, the Incidence of occlusion in experiment [4] (10 μg/kg/min i.v. infusion) was 3/4; in experiment [4] (20 μg/kg/min i.v. infusion), 0/4; in experiment [4] (50 μg/kg/min i.v. infusion), 0/4. The “Minutes to occulsion of those occluding” value in experiment [4] (10 μg/kg/min i.v. infusion) lay in the range of 22 to 24 min.

Consider `CNC(=O)C(=O)C(NC(=O)C1CCCN1C(=O)CC(c1ccccc1)c1ccccc1)C1CCC(N)CC1` (mixture of isomers) [xv], for which the Ki on human α-thrombin (setting [5]) was 0.03 nM; at bovine trypsin (setting [6]), 2000 nM; at Factor Xa (fXa), more than 10000 nM; in experiment [1] it was more than 10000 nM; at plasmin (Pl), more than 10000 nM; in experiment [2] it was more than 10000 nM. For the same compound, the Ki in experiment [3] is more than 10000 nM.

Consider `CNC(=O)C(=O)C(NC(=O)C1CCCN1C(=O)CCC1CCCCC1)C1CCC(N)CC1` (centres unmarked) [xiii], for which the Ki at human α-thrombin (setting [5]) is 2.2 nM; on bovine trypsin (setting [6]) it was 4000 nM; at Factor Xa (fXa), more than 10000 nM; in experiment [1], more than 10000 nM; on plasmin (Pl) it was more than 10000 nM; in experiment [2], more than 10000 nM. The compound also had a Ki in experiment [3] of more than 10000 nM.

Turning to `CNC(=O)C(=O)C(NC(=O)C1CCCN1C(=O)CCc1ccccc1)C1CCC(N)CC1` (mixture of isomers) [ix], the Ki is 4 nM at human α-thrombin (setting [5]); more than 10000 nM on bovine trypsin (setting [6]); more than 10000 nM on Factor Xa (fXa); more than 10000 nM in experiment [1]; more than 10000 nM at plasmin (Pl); more than 10000 nM in experiment [2]. The Ki in experiment [3] was more than 10000 nM.

As for `CNC(=O)C(=O)C(NC(=O)C1CCCN1C(=O)C(Cc1ccc(Cl)c(Cl)c1)NC)C1CCC(N)CC1` (centres unmarked) [xii], the Ki is 0.025 nM at human α-thrombin (setting [5]); 660 nM at bovine trypsin (setting [6]); 2300 nM at Factor Xa (fXa); more than 10000 nM in experiment [1]; more than 10000 nM at plasmin (Pl); more than 10000 nM in experiment [2]. This compound also came in with a Ki in experiment [3] of more than 10000 nM.

For `CNC(Cc1ccccc1)C(=O)N1CCCC1C(=O)NC(C(=O)C(=O)NCc1ccccc1)C1CCC(N)CC1` (mixture of isomers) [xvi], the Ki at human α-thrombin (setting [5]) is 0.6 nM; at bovine trypsin (setting [6]) it was 120 nM; on Factor Xa (fXa) it was more than 10000 nM; in experiment [1], more than 10000 nM; at plasmin (Pl) it was more than 10000 nM; in experiment [2] it was more than 10000 nM. In addition, the Ki in experiment [3] is more than 10000 nM.

For the compound `CNC(=O)C(=O)C(NC(=O)C1CCCN1C(=O)C(Cc1ccccc1)NC)C1CCC(N)CC1` [4-3, H-NMe-D-Phe-Pro-t-D-Acg.PSI.[COCO]--NHMe], the Ki on bovine trypsin (Table 1, 25° C., 0.05M TRIS pH 7.4, 0.15M NaCl, 0.1% PEG, 1 mM CaCl2, listed as drawing 21, read-out: Ki (μM) Trypsin) was 7000 nM.

As for `CNC(Cc1ccccc1)C(=O)N1CCCC1C(=O)NC(C(=O)C(=O)NC1CC1)C1CCC(N)CC1` (mixture of isomers) [xvii], the Ki on human α-thrombin (setting [5]) was 0.07 nM; at bovine trypsin (setting [6]), 120 nM; at Factor Xa (fXa) it was more than 10000 nM; in experiment [1] it was 9000 nM; at plasmin (Pl), more than 10000 nM; in experiment [2], more than 10000 nM. Moreover, the Ki in experiment [3] was more than 10000 nM.

Consider `CNC(=O)C(=O)C(NC(=O)C1CCCN1C(=O)CCc1ccc(Cl)c(Cl)c1)C1CCC(N)CC1` (centres unmarked) [xi], for which the Ki on human α-thrombin (setting [5]) was 0.4 nM; at bovine trypsin (setting [6]) it was more than 10000 nM; on Factor Xa (fXa) it was more than 10000 nM; in experiment [1], more than 10000 nM; on plasmin (Pl) it was more than 10000 nM; in experiment [2] it was more than 10000 nM. In experiment [3], this compound showed a Ki of more than 10000 nM.

For the compound `CNC(=O)C(=O)C(NC(=O)C1CCCN1C(=O)C(CC1CCCCC1)NC)C1CCC(N)CC1` (centres unmarked) [x], the Ki at human α-thrombin (setting [5]) is 0.07 nM; on bovine trypsin (setting [6]), 310 nM; at Factor Xa (fXa), 3000 nM; in experiment [1], more than 10000 nM; at plasmin (Pl) it was 6000 nM; in experiment [2], more than 10000 nM. Besides, the Ki in experiment [3] is more than 10000 nM.

On to `CNC(Cc1ccccc1)C(=O)N1CCCC1C(=O)NC(C(=O)C(=O)N1CCC1)C1CCC(N)CC1` (mixture of isomers) [xviii], for which the Ki is 0.04 nM on human α-thrombin (setting [5]); 760 nM at bovine trypsin (setting [6]); more than 10000 nM on Factor Xa (fXa); more than 10000 nM in experiment [1]; more than 10000 nM on plasmin (Pl); more than 10000 nM in experiment [2]. In experiment [3], this compound returned a Ki of more than 10000 nM.

As for `CNC(=O)C(=O)C(CC1CCC(N)CC1)NC(=O)C1CCCN1C(=O)C(Cc1ccccc1)NC` (centres unmarked) [vi], the Ki on human α-thrombin (setting [7]) was 52 nM; on bovine trypsin (setting [8]), 1440 nM. In addition, the Ratio at human α-thrombin (Table 1) came to 28.

For the origin of these results see patent US5672582A, “Thrombin inhibitors” (Merck & Co., Inc., priority 1994, dated 1997).
